How the values were obtained:
[1] = test system: spatial recognition and memory; assay: Y-maze test; type: in vivo, male ICR mice; conditions: 12 MPK p.o. once daily, ten days after drug administration; control 61.8%
Description: (§1) Twenty-eight male ICR mice, 5 weeks old, weighing approximately 27-30 g, were used. The animals were housed in a controlled environment with a temperature of 26.8 ± 0.5°C, relative humidity of 48.4 ± 1.7%, and lighting from 07:00 to 19:00. They were fed a standard diet (AIN-93G diet) and given free access to drinking water. After 7 days of acclimation and habituation, healthy animals were selected for the experiments.
(§2) Mirodenafil was dissolved in 10 mL of distilled water to prepare a 12 mg/kg (MPK) solution. Sildenafil and tadalafil were similarly prepared at 12 MPK each.
(§3) • 1) Control group (n=7): p.o. administration of distilled water (D.W.) • 2) Experimental group 1 (n=7): p.o. administration of mirodenafil (12 MPK) • 3) Experimental group 2 (n=7): p.o. administration of sildenafil (12 MPK) • 4) Experimental group 3 (n=7): p.o. administration of tadalafil (12 MPK)
(§4) Following 7 days of acclimation, the control group received distilled water orally once daily for 15 days, and the experimental groups received their respective drugs orally once daily for 15 days.
Mice were placed at the center of a Y-maze and allowed to explore for 8 minutes. Entries were recorded when all four paws fully entered an arm. The maze was cleaned with 70% alcohol between tests. Spontaneous alternation behavior was analyzed using the Yamada statistical method. An alternation was counted when the mouse consecutively entered three different arms. The percentage of spontaneous alternation was calculated as (number of alternations / total arm entries) × 100. • iii. Recording data(ex): BCABCBABCBCABBCACBACCABCABCACBCABC • iv. [formula]
Data were expressed as mean ± standard error of the mean (SEM). Statistical significance was assessed by T-test with thresholds of P < 0.01 or *0.01 < P < 0.05. Data analysis and plotting were performed using Prism 8 software.

[2] = test system: context-specific fear memory; assay: Passive avoidance test; type: in vivo; conditions: 12 MPK p.o. once daily, after 15 doses, followed by electric shock; male ICR mice
Description: as §1, §2, §3, §4
The passive avoidance step-through apparatus was illuminated in the bright chamber at 50% lightness. Mice were placed inside and allowed to move freely between the bright and dark chambers for 5 minutes. After 5 minutes, accommodation was terminated, and mice rested in their home cages.
Mice that completed accommodation were placed in the bright chamber under the same lighting conditions. When the mouse fully entered the dark chamber (all four paws on the floor), an electric shock (0.4 mA, 2 seconds, repeated twice with a 2-second interval) was delivered (maximum latency: 65 seconds, single session). […]
Mice that completed training were placed again in the bright chamber under the same conditions. The latency to enter the dark chamber (all four paws touching the floor) was recorded without shock (maximum latency: 300 seconds). […]
(§5) Data were expressed as mean ± standard error of the mean (SEM). Statistical significance was assessed by T-test with thresholds of P < 0.01 or *0.01 < P < 0.05. […]

[3] = test system: object recognition and memory; assay: Novel object recognition test; type: in vivo, male ICR mice; conditions: 12 MPK p.o. once daily, eight days after drug administration; control group 49.0%
Description: as §1, §2, §3, §4
Mice were placed in the center of a rat cage and allowed to explore freely for 5 minutes (accommodation). Afterward, mice rested in their home cages.
Following accommodation, two identical objects (Object A and Object B) of the same color, shape, and size were placed at fixed intervals in the cage. […]
Twenty-four hours after Training 1, mice were reintroduced to the cage with the same objects (A and B) spaced similarly. Exploration time of each object was recorded for 5 minutes. […]
Twenty-four hours after Training 2, mice were introduced to the cage containing one familiar object (A) and one novel object (C) differing in color, shape, or size. Exploration time was recorded for 5 minutes. The percentage of time spent exploring each object was calculated using the following formula: (Formula to calculate % exploration time for objects) • i. […]
as §5

Structure (SMILES) | spontaneous alternation rates [1] | decrease of latency time compared to the control [2] | exploration of novel objects [3]
CCCc1nn(C)c2c(=O)[nH]c(-c3cc(S(=O)(=O)N4CCN(C)CC4)ccc3OCC)nc12 [sildenafil] | 60.7% | 55.5% | 57.9%
CN1CC(=O)N2[C@H](c3ccc4c(c3)OCO4)c3[nH]c4ccccc4c3C[C@@H]2C1=O [tadalafil] | 59.6% | 63.2% | 57.0%
CCCOc1ccc(S(=O)(=O)N2CCN(CCO)CC2)cc1-c1nc2c(CCC)cn(CC)c2c(=O)[nH]1 [mirodenafil] | 58.4% | 73.5% | 53.7%

Reference: patent EP4656194A1, “COMPOSITION FOR PREVENTING OR TREATING POST-TRAUMATIC STRESS DISORDER, COMPRISING PHOSPHODIESTERASE TYPE 5 INHIBITOR AS ACTIVE INGREDIENT” (Aribio Co., Ltd, priority 2023, dated 2024)
